Laboratory results reported in patent publication US11413278B2, “Compounds and methods for promoting stress resistance” (priority 2015, dated 2022).

Tests used:
NRF2 [1] = experiment: qPCR analysis of NRF2-regulated genes; type: cell-based, human
Outline: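 Expression of HMOX1, NQO1, GCLC and GSTM1 measured by qPCR relative to B2M, PPIA and GAPDH. Cells were WI-38 fibroblasts exposed 24 hrs to 10 μM compound, with RNA and cDNA prepared via Cells-to-Ct. Where stated, cells were first transfected 36 hrs with FOXO3 or NRF2 siRNA at 10 nM.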

C. elegans = C. elegans lifespan assays (liquid and plate); type: in vivo, Caenorhabditis elegans; conditions: for Lifespan assay in liquid / Lifespan assay on plates: at 66 uM; for Lifespan assay on plates: CF512 worms, no FuDR
LC3A/B puncta = experiment: Autophagy induction analysis (LC3A/B puncta immuno-staining); type: cell-based, human; conditions: for Exp. 2, induction of LC3A/B puncta (Up), overlapped signals normalized by total number of nuclei in the fields / Exp. 2, normalized change of nuclei numbers (Less cells): 20X objective, lysosomal LAMP co-staining
Outline: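 Read-out is LC3A/B puncta intensity per DAPI-positive nucleus, either total puncta (Exp. 1) or puncta colocalizing with LAMP2 lysosomes (Exp. 2). Cells were WI-38, exposed to compounds for 24 hrs before antibody staining overnight at 4° C and automated imaging.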

NRF2 [2] = experiment: in vitro; type: cell-based, human
[3] = 10 μM, 24 hrs, WI-38 cells, qPCR, normalized to B2M, n = 4
[4] = WI-38 cells, 10 μM, 24 hrs, n=4, qPCR normalized by B2M
[5] = rounded fold change, WI-38 cells, 10 μM, 24 hrs (RP29 for Gr-4D)
[6] = Exp. 1, 10 μM, 10X objective, WI-38 cells

COc1cc2c(no[n+]2[O-])n2nnnc12 [O11]
Induction of at least two NRF2-regulated genes (HMOX1, NQO1, GCLC, GSTM1) (NRF2 [1]; 10 μM, 24 hrs, WI-38): could induce expression of at least two genes
GSTM1 expression, normalized fold change (NRF2-regulated gene) (NRF2 [1]; [3]): GSTM1 1.30, fold
NQO1 expression, normalized fold change (NRF2-regulated gene) (NRF2 [1]; [3]): NQO1 2.03, fold
F = Potential NRF2 Activation (NRF2 [1]; 2-point score): 0
Induction of NRF2-regulated genes: GSTM1 normalized fold-change (NRF2 [1]; Assay 12(o), at 10 uM, qPCR): GSTM1 1.30, fold-change
Induction of NRF2-regulated genes: NQO1 normalized fold-change (NRF2 [1]; Assay 12(o), at 10 uM, qPCR): NQO1 2.03, fold-change
GCLC Normalized fold change (NRF2 [1]; [4]): 1.333 fold change
GSTM1 Normalized fold change (NRF2 [1]; [4]): 1.304 fold change
HMOX1 Normalized fold change (NRF2 [1]; [4]): 1.069 fold change
NQO1 Normalized fold change (NRF2 [1]; [4]): 2.027 fold change
Summary of effects on NRF2-regulated genes: GSTM1 (NRF2 [1]; [5]): 1.30,
Summary of effects on NRF2-regulated genes: NQO1 (NRF2 [1]; [5]): 2.03,
F = Potential NRF2 Activation (NRF2 [1]; summary score): 0
relative change of mean lifespan vs control, Trial 1 (C. elegans; 60 μM, in liquid, wild type, with FuDR, 1.0 × 10^9 bacteria/ml): +14.9%
relative change of mean lifespan vs control, Trial 2 (C. elegans; 60 μM, in liquid, wild type, with FuDR, 2.5 × 10^9 bacteria/ml): +6.0%
relative change of mean lifespan vs control, Trial 4 (C. elegans; 60 μM, on plate, CF512 temperature-sensitive sterile animals, without FuDR, 1.0 × 10^11 bacteria/ml): +9.0%
relative change of mean lifespan vs control, Trial 3 (C. elegans; 60 μM, on plate, CF512 temperature-sensitive sterile animals, without FuDR, 2.0 × 10^10 bacteria/ml): +21.0%
Lifespan assay in liquid (C. elegans; Assay 2(z), 1.0 × 10^9 bacteria/ml, wild type + FuDR (2012 July)): +14.9%
Lifespan assay in liquid (C. elegans; Assay 3(aa), 2.5 × 10^9 bacteria/ml, wild type + FuDR): +6.0%
Lifespan assay on plates (C. elegans; Assay 4(ab), 2.0 × 10^10 bacteria/ml): +21.0%
Lifespan assay on plates (C. elegans; Assay 5(ac), 1.0 × 10^11 bacteria/ml): +9.0%
O = Life span- extending scores in worms (C. elegans; score scale 0 to 2, 4 to 6 independent trials): 1 (1 for lifespan extension observed in 2 trials)
M = Lifespan-extending scores in worms (C. elegans; summary score): 1 (1 for lifespan extension observed in 2 trials)
Assay 15: Potential autophagy induction by LC3A/B puncta assays (LC3A/B puncta; 10 uM & 20 uM, YES/NO): YES
Exp. 1, induction of LC3A/B puncta (Up), total intensity normalized by total number of nuclei in the fields (LC3A/B puncta; [6]): p < 0.01; Up, 315%,
Exp. 1, normalized change of nuclei numbers (Less cells) (LC3A/B puncta; [6]): Less cells, 64%,
Exp. 2, induction of LC3A/B puncta (Up), overlapped signals normalized by total number of nuclei in the fields (LC3A/B puncta; Exp. 2, 10 μM, WI-38 cells): p < 0.001; Up, 193%,
Exp. 2, normalized change of nuclei numbers (Less cells) (LC3A/B puncta; Exp. 2, 10 μM, WI-38 cells): Less cells, 71%,
Exp. 2, induction of LC3A/B puncta (Up), overlapped signals normalized by total number of nuclei in the fields (LC3A/B puncta; Exp. 2, 20 μM, WI-38 cells): p < 0.001; Up, 159%,
Exp. 2, normalized change of nuclei numbers (Less cells) (LC3A/B puncta; Exp. 2, 20 μM, WI-38 cells): Less cells, 69%,
H = Potential Autophagy Induction (LC3A/B puncta; score): 1
H = Potential Autophagy Induction (LC3A/B puncta; summary score): 1
J = NRF2-dependency for H2O2-resistance (NRF2 [2]; score): 0
J = NRF2-dependency for H2O2-resistance (NRF2 [2]; summary score): 0
